Measured values: patent US12448376B2, “Phenothiazine ferroptosis inhibitor, preparation method therefor and application thereof” (CHENGDU HENGHAO INNOVATIVE SCIENCE AND TECHNOLOGY CO., LTD., priority 2019, dated 2025)

Experiments:
fibrosarcoma cell line = assay: Ferroptosis screening model, MTT cell viability assay with Erastin induction; assay type: cell-based
Protocol: In this example, in order to study the inhibitor of ferroptosis, a screening model for ferroptosis was constructed in house, and the details are as follows:
The screening model for ferroptosis mainly used the MTT cell viability assay. First, the fibrosarcoma cell line was cultured in a dish, and the cells in the logarithmic growth phase were seeded in a 96-well plate in specific numbers (3000-10000 cells/well), 100 μL per well, and then cultured in an incubator at 37° C. and 5% CO2 to allow the cells to adhere. After 24 h, 100 μL of compounds at certain concentrations prepared in the indicated medium and the ferroptosis inducer Erastin (final concentration of 10 μM) were added, and wells in triplicate were set up for each compound to ensure the accuracy of the results. A negative control group, positive control group (5 μM of ferrostain-1), blank control group and solvent control group were also set. After dosing, cells were placed in the incubator and cultured for 72 h. On the day of the MTT test, MTT test solution (5 mg/mL MTT solution dissolved in physiological saline, stored at 4° C. in the dark) was pre-prepared, and 20 μL was added to each well. Cells were placed in the incubator and cultured for another 2-4 h. Then, 50 μL of 20% SDS solution (dissolved in MiliiQ water, added with 1% concentrated hydrochloric acid) was added to each well, and cells were placed in the incubator overnight. The next day, the absorbance value at 570 nm was detected with a microplate reader to calculate the inhibition rate of the drug on ferroptosis. Generally, the absorbance value of the control group should be between 0.8-1.2 as a normal value.
The curve of inhibition rate change was fitted using Graph Pad Prism 5 software to obtain EC50.

[1] = tested on: middle cerebral artery occlusion (MCAO) cerebral stroke model in rat; assay: Rat MCAO cerebral stroke model, single administration, TTC staining; assay type: in vivo, SD rats; settings: for Infarct area weight: tail vein injection within 10 min of reperfusion; for Infarct area weight / Infarct size: 24 h after reperfusion; for Inhibition rate of cerebral infarction / Infarct size: tail vein injection; for Inhibition rate of cerebral infarction: calculated from infarct size against model control; for Infarct size: infarct tissue weight as percentage of whole brain
Protocol: Through the middle cerebral artery occlusion (MCAO) cerebral stroke model (also known as cerebral ischemia model) in rat, the therapeutic effects of the compounds of the present disclosure at different doses and single administration on ischemic cerebral stroke in SD rats were studied. […] The ischemic rats were placed at room temperature to keep their body temperature at 37° C. After 90 min, the suture was pulled out for reperfusion. […] After 24 h of reperfusion, the animals were scored by NSS to evaluate neurological function, and then the animals were dissected to remove the brain for TTC staining. By determining the size of cerebral infarction and calculating the inhibition rate, the therapeutic effects of the test compounds on ischemic cerebral stroke in rats were evaluated comprehensively. […] The percentage of infarct tissue weight in the whole brain was used as the infarct size (%), and the inhibition rate (%) of each drug treatment group was calculated based on the infarct size. The inhibition rate was calculated with the following formula: [formula] 2.

human hERG ion channel = target: T1, human hERG ion channel (Homo sapiens, UniProt Q12809); assay: hERG whole-cell patch clamp in HEK293 cells; assay type: cell-based; settings: for IC50: hERG tail current, HEK293 cells, 0.3-30 μM, room temperature
T1 construct: expressed in transfected cells; host or cells: HEK293 cells stably expressing hERG
T1 sequence (Q12809 whole entry): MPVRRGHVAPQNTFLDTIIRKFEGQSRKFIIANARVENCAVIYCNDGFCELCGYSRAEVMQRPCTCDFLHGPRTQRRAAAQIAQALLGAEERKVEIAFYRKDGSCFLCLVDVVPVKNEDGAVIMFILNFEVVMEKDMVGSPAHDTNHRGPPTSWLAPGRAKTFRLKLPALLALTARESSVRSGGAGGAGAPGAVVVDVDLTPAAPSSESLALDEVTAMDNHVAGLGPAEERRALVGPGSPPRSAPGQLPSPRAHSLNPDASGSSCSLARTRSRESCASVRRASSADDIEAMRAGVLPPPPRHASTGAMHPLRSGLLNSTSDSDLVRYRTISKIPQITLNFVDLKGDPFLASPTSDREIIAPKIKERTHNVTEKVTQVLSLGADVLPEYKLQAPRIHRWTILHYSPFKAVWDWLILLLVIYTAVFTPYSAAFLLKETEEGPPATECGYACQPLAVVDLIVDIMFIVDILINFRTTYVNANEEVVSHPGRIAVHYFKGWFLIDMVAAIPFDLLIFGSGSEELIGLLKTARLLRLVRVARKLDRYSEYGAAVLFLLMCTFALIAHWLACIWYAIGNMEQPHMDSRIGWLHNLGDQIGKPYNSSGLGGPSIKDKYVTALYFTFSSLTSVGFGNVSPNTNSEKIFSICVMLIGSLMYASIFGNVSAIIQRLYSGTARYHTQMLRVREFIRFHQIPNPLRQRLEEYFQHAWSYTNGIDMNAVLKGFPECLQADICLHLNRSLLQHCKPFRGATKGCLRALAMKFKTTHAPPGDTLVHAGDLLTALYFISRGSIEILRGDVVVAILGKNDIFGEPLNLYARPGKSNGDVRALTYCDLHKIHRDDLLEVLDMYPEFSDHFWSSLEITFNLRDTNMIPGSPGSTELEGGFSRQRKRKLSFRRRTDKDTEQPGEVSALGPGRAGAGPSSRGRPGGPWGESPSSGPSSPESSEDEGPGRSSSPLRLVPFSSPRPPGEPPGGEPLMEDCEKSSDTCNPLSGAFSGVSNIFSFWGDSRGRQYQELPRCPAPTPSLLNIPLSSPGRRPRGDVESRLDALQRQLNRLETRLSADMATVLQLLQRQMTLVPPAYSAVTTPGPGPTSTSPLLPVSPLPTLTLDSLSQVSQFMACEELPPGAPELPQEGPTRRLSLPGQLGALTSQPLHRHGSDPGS
Protocol: Effect of Compounds of the Present Disclosure on Human hERG Ion Channel Expressed in HEK293 Cells at Steady State Determined by Patch Clamp
The hERG ion channel steady-state expressing HEK293 cells were transferred to a perfusion tank and perfused with extracellular fluid at room temperature. Each cell was used as a control. All test compounds were dissolved by shaking with dimethyl sulfoxide and prepared as serial concentrations of 0.3 μM, 1 μM, 3 μM, 10 μM and 30 μM. The test compounds were perfused using a perfusion system utilizing their own gravity. At least two cells were tested for each concentration. After the current was stable (or 5 min), the current magnitude changes before and after the compound was used were compared to calculate the blocking effect of the compound. Test electrodes were pulled with PC-10. Whole-cell patch clamp was used to record, with noise filtered at one-fifth of the sampling frequency. […] This procedure was repeated every 15 seconds. hERG tail currents were pure hERG currents. After the current was stabilized, the administration was performed by continuous extracellular perfusion from low concentration to high concentration. Starting from a low concentration, perfusion was continued until the drug effect was stable, and then perfusion of the next concentration was performed.
Stimulus delivery and signal acquisition were performed by the Patch Master software. The signal was amplified with a patch clamp amplifier with a filtering of 10 KHz. Fit Master, EXCEL, Graph Pad Prism and SPSS 21.0 were used for further data analysis and curve fitting. In data processing, when judging the blocking effect on hERG the peak value of the tail current and its baseline were corrected. The effect of each compound at different concentrations was expressed by the inhibition rate of the tail current. Inhibition rate %=100×(peak value of tail current before administration-peak value of tail current after administration)/peak value of tail current before administration
IC50 values were fitted by the Hill equation: […]

[2] = Hemolysis reaction (statement only, no method)
[3] = 72 h, inhibition of ferroptosis induced by Erastin 10 μM, MTT; average of three tests
[4] = summary of Table 1, compared with positive drug ferrostain-1
[5] = inhibition of ferroptosis induced by Erastin 10 μM, 72 h, MTT; average of three tests

Compound	EC50 (fibrosarcoma cell line; [3])	also measured
C=C(c1ccc2c(c1)Nc1ccccc1S2)c1cn2cc(C(=O)NC3CCOCC3)nc2cn1 [Compound 23]	67 nM	–
C=C(c1ccc2c(c1)Nc1ccccc1S2)c1cn2cc(C(=O)NCC3CCOCC3)nc2cn1 [Compound 24]	56 nM	–
C=C(c1ccc2c(c1)Nc1ccccc1S2)c1cn2cc(C(=O)N[C@H](C)c3ccccc3)nc2cn1 [Compound 26]	76 nM	–
CC(c1ccc(N2CCN(C)CC2)cc1)c1ccc2c(c1)Nc1ccccc1S2 (stereo not drawn) [Comparative Compound 1, reference compound]	–	Infarct area weight ([1]; 2.5 mg/kg): 0.14 ± 0.07 g; Inhibition rate of cerebral infarction ([1]; 2.5 mg/kg): 19.0%; Infarct area weight ([1]; 5 mg/kg): 0.11 ± 0.05 g; Inhibition rate of cerebral infarction ([1]; 5 mg/kg): 33.6%
C=C(c1ccc2c(c1)Nc1ccccc1S2)c1cnc2c(cnn2CC2CCN(C(=O)OC(C)(C)C)CC2)c1 [Compound 4]	76 nM	–
C=C(c1ccc2c(c1)Nc1ccccc1S2)c1cnc2c(ccn2C)c1 [Compound 34]	42 nM	–
CCOC(=O)c1ccc(NC2CCCCC2)c(N)c1 [Ferrostain-1, Ferrostatin-1, reference compound]	–	EC50 (fibrosarcoma cell line; 72 h): 60 nM
C=C(c1ccc2c(c1)Nc1ccccc1S2)c1ccc2c(c1)OCCO2 [Compound 13]	37 nM	–
C=C(c1ccc2c(c1)Nc1ccccc1S2)c1ccc2c(c1)SCC(=O)N2 [Compound 11]	33 nM	–
C=C(c1ccc2c(c1)Nc1ccccc1S2)c1cn2cc(C(=O)N[C@H](C)c3cccc4ccccc34)nc2cn1 [Compound 25]	55 nM	–
C=C(c1ccc2c(c1)Nc1ccccc1S2)c1cnc2sccc2c1 [Compound 35]	74 nM	–
C=C(c1cnc2c(c1)CCN2)c1ccc2c(c1)Nc1ccccc1S2 [Compound 17]	89 nM	–
CCCCC1OC(=O)c2ccccc21 (stereo not drawn) [Positive drug, butylphthalide, reference compound]	–	Infarct area weight ([1]; 5 mg/kg): 0.18 ± 0.09 g; Inhibition rate of cerebral infarction ([1]; 5 mg/kg): 1.1%; Infarct size ([1]; 5 mg/kg): 13.93 ± 6.97%
C=C(c1ccc2c(c1)Nc1ccccc1S2)c1cnc2c(cnn2C2CCOC2)c1 (stereo not drawn) [Compound 32]	–	EC50 (fibrosarcoma cell line; [5]): 50 nM
C=C(c1ccc2c(c1)Nc1ccccc1S2)c1cnc2c(cnn2C2CCOC2)c1 (stereo not drawn) [Compound 19]	–	EC50 (fibrosarcoma cell line; [5]): 13 nM
C=C(c1ccc2c(c1)Nc1ccccc1S2)c1cnc2c(cnn2CC2CCOCC2)c1 [Compound 2]	38 nM	–
C=C(c1ccc(S(=O)(=O)NC2CCN(C)CC2)cc1)c1ccc2c(c1)Nc1ccccc1S2 [Comparative Compound 2, reference compound]	–	IC50 (human hERG ion channel): 710 nM
C=C(c1ccc2c(c1)Nc1ccccc1S2)c1cnc2c(cnn2CCOC)c1 [Compound 27]	73 nM	–
C=C(c1ccc2c(c1)Nc1ccccc1S2)c1cnc2c(cnn2C2CN(C(=O)OC(C)(C)C)C2)c1 [Compound 8]	–	EC50 (fibrosarcoma cell line; [5]): 55 nM
C=C(c1ccc2c(c1)Nc1ccccc1S2)c1cnc2c(cnn2C2CN(C(=O)OC(C)(C)C)C2)c1 [Compound 30]	92 nM	–
C=C(c1ccc2c(c1)Nc1ccccc1S2)c1cnc2c(cnn2CC)c1 [Compound 33]	67 nM	–

Second part, led by results:

EC50 (fibrosarcoma cell line; [3])	Compound	also measured
0.2 nM	C=C(c1ccc2c(c1)Nc1ccccc1S2)c1cnc2c(cnn2C2CCN(C)CC2)c1 [Compound 20]	inhibitory effects on ferroptosis (in words) (fibrosarcoma cell line; [4]): excellent inhibitory effects on ferroptosis, significantly better than the positive drug ferrostain-1
11 nM	C=C(c1ccc2c(c1)Nc1ccccc1S2)c1cnc2[nH]ncc2c1 [Compound 31]	–
6 nM	C=C(c1ccc2c(c1)Nc1ccccc1S2)c1ccc2ncccc2c1 [Compound 14]	inhibitory effects on ferroptosis (in words) (fibrosarcoma cell line; [4]): excellent inhibitory effects on ferroptosis, significantly better than the positive drug ferrostain-1; Infarct area weight ([1]; 2.5 mg/kg): 0.15 ± 0.07 g; Inhibition rate of cerebral infarction ([1]; 2.5 mg/kg): 14.0%; Infarct size ([1]; 2.5 mg/kg): 12.11 ± 5.69%; Infarct area weight ([1]; 5 mg/kg): 0.12 ± 0.05 g; Inhibition rate of cerebral infarction ([1]; 5 mg/kg): 29.3%; Infarct size ([1]; 5 mg/kg): 9.95 ± 4.69%; range of necrosis of brain tissue lesions (in words) ([1]; high and low dose administration groups): reduce the range of necrosis of brain tissue lesions; effect on the human hERG ion channel (in words) (human hERG ion channel; HEK293 cells in a steady state): no significant effect; IC50 (human hERG ion channel): > 30000 nM; improvement of cardiac safety compared with compound 59 of CN111574474A (human hERG ion channel; ratio of hERG IC50 values): about 50 times; hemolysis reaction (in words) [2]: no hemolysis reaction
14 nM	C=C(c1ccc2c(c1)Nc1ccccc1S2)c1cnc2nc(C(=O)NCCN(C)C)cn2c1 [Compound 22]	–
24 nM	C=C(c1ccc2c(c1)Nc1ccccc1S2)c1cn2ccnc2c(N2CCOCC2)n1 [Compound 7]	–
10 nM	C=C(c1ccc2c(c1)Nc1ccccc1S2)c1ccc2c(c1)OC(F)(F)O2 [Compound 15]	–
16 nM	C=C(c1ccc2c(c1)Nc1ccccc1S2)c1cnc2c(cnn2C2CCNCC2)c1 [Compound 36]	–
10 nM	C=C(c1ccc2c(c1)CCN2C(C)=O)c1ccc2c(c1)Nc1ccccc1S2 [Compound 16]	–
12 nM	C=C(c1ccc2c(c1)Nc1ccccc1S2)c1ccc2cc(C(=O)NCCN3CCOCC3)[nH]c2c1 [Compound 9]	–
15 nM	C=C(c1ccc2c(c1)Nc1ccccc1S2)c1ccc2c(C=O)c[nH]c2c1 [Compound 10]	–
29 nM	C=C(c1ccc2c(c1)Nc1ccccc1S2)c1cnc2c(cnn2C2CCN(C(=O)OC(C)(C)C)CC2)c1 [Compound 29]	–
15 nM	C=C(c1ccc2c(c1)Nc1ccccc1S2)c1ccc2c(C(=O)NCCN3CCOCC3)c[nH]c2c1 [Compound 6]	–
